Legend:
wtIDH2 = target: T1, wtIDH2 (Homo sapiens, UniProt P48735); assay: Cell-based IDH2 activity in MiaPaCa-2 PC cells
T1 construct: endogenous in cells; host or cells: MiaPaCa-2 pancreatic cancer cells (IDH1 silenced by siRNA)
T1 sequence (P48735 40-452): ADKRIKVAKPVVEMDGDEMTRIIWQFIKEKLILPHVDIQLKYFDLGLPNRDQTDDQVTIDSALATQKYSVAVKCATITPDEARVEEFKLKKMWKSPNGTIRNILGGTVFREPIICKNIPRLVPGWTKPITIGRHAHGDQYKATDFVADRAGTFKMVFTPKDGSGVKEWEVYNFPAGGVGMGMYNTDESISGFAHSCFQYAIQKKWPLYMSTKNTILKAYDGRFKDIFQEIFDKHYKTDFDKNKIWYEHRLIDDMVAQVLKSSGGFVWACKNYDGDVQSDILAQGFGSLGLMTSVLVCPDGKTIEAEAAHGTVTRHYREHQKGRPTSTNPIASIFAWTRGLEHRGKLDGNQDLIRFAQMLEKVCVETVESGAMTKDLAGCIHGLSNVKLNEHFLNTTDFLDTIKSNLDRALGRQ
Description: (§1) IDH activity assay. Cell-based wtIDH activity is measured by quantitation of IDH-dependent NADPH synthesis (Abcam, ab 102528). The reaction measures the activity of both IDH1 and IDH2 isoenzymes. IDH1 activity is specifically measured using the same assay after transient siRNA silencing of IDH2 (Extended Data FIG. 6i). The opposite approach is used to estimate IDH2 activity. All readouts were normalized to cell number. Cell-free wtIDH1 activity was performed by a fluorometric assay measuring NADPH levels at 355/460 nm. The assay contained 0.25 nM human recombinant IDH1 (RD systems), 30 μM isocitrate, and 30 μM NADP^+ in 20 μL of 100 mM Tris-HCL, pH8, 0.2 mM DTT, 0.05% CHAPS, and MgCl2 at the indicated levels. Formation of NADPH was measured over 40 min at 5 min intervals.

PC cells = assay: Oxygen consumption rate (Seahorse); format: cell-based, human
Description: Cell bioenergetic assays. Oxygen consumption rates (OCR) and extracellular acidification rates (ECAR) were measured using the Seahorse XFp Extracellular Flux Analyzer (Seahorse Bioscience) according to the manufacturer's instructions. For OCR experiments, cells were cultured in 4 mM glutamine, 5% FBS, and the indicated glucose levels for 24-36 hours. Mitochondrial membrane potential was measured with TMRE staining (Invitrogen, T669) according to the manufacturer's instructions. […] NADPH (abcam, ab65349), GSH/GSSG ratio (Promega, V6611), and ATP (abcam, 83355) measurements were performed according to the manufacturer's instructions. All readouts were normalized to cell number.

HCT116 cells = assay: Clonogenic growth of colon cancer cells; format: cell-based, human; settings: low Mg2+ and glucose
Description: Clonogenic assay. 1000-2000 cells per well were plated in six-well plates. Media was not changed during experiments unless indicated. […] Upon completion of the experiments, colonies were fixed in a reagent containing 80% methanol and stained with 0.5% crystal violet. To determine relative growth, dye was extracted from stained colonies with 10% acetic acid and the associated absorbance measured at 600 nm using a Microplate Reader (GloMax Explorer system, Promega).

IDH1 = IDH1 (Homo sapiens, UniProt O75874); assay: Cell-free wtIDH1 activity (fluorometric NADPH); format: biochemical; set-up: purchased RD systems; settings: Mg2+ reduced to 0.1 mM
Description: as §1

Sequence of IDH1 (O75874 whole entry): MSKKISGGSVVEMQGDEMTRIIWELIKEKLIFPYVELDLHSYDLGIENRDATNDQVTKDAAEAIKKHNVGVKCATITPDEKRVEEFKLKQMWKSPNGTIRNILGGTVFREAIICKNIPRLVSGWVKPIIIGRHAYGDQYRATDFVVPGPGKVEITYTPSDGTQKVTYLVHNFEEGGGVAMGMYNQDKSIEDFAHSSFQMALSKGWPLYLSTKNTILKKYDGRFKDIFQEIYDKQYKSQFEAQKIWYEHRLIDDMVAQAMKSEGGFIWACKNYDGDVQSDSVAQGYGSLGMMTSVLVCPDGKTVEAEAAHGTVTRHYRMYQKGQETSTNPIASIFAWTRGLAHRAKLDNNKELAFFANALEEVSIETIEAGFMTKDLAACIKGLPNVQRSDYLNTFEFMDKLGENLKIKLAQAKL

N#Cc1ccnc(N2C(=O)CC[C@H]2C(=O)N(c2cncc(F)c2)[C@H](C(=O)NC2CC(F)(F)C2)c2ccccc2Cl)c1 [AG-120, ivosidenib]
inhibitory activity against wtIDH2 (wtIDH2): no inhibitory activity
oxygen consumption (PC cells; low Mg2+ and glucose): severely impaired oxygen consumption
oxygen consumption (PC cells; standard Mg2+ and low glucose): no effect on oxygen consumption
response in culture (HCT116 cells): responded to the drug
cell-free wtIDH1 activity inhibition (IDH1): highly potent

— patent publication US20250092035A1, “ISOCITRATE DEHYDROGENASE 1 INHIBITORS AND METHODS OF USE THEREOF” (THE WISTAR INSTITUTE OF ANATOMY AND BIOLOGY, priority 2022, published 2025)
